Measured values from US10195196B2, “1,4-disubstituted pyridazine analogs there of and methods for treating SMN-deficiency-related conditions” (NOVARTIS AG, priority 2012, dated 2019).

Tested on: SMN protein
Assay: cellular SMN ELISA (SMN protein elevation)
Type: cell-based
Settings: myoblast cell line from SMNdelta7 mouse model, 24 hours treatment; for SMN activity Fold: fold activation over DMSO control
Procedure: A cellular SMN ELISA was used to measure the effects of low molecular weight compounds on SMN protein elevation. Cells from a myoblast cell line derived from the SMNdelta7 mouse model (kind gift from Steve Burden, NYU) were seeded into a 384-well plate at a density of 3000 cells/well and treated with compounds for 24 hours. ELISA capture plates were prepared by coating 384-well plates (Immulon 4HBX) with 0.5 ug/mL of anti-SMN mAb (BD Science, Catalog number 610647) at 4° C. overnight. The plates were washed 5 times with 110 uL of PBS-Tween (0.05% Tween-20, PBST), blocked with 100 uL of 1% BSA in PBST for 2 hours and washed (5 times) with 100 uL of PBST. After 24 hours of compound treatment cells were lysed in a modified RIPA-buffer, on ice for 1 hour. 20 uL of lysate and 20 uL of 1% BSA were then added to the ELISA capture plates and incubated at 4° C. overnight. Plates were washed (5 times) with PBST and then incubated with 1:100 dilution of primary rabbit anti-SMN polyclonal antibody (Santa cruz, Catalog number SC-15320) at room temperature for 1 hour and subsequently washed (5 times) with 110 uL of PBST. This was followed by addition of 1:100 Goat anti-Rabbit IgG-HRP linked (Cell Signaling, Catalog number 7074) secondary antibody for 1 hour. Plates were then washed with PBST and incubated with 40 uL TMB substrate (Cell Signaling, Catalog number 7004L) at room temperature for 1-10 minutes with shaking. The reaction was stopped by addition of 40 uL of stop solution (Cell signaling, Catalog number 7002L) and absorption was measured at 450 nm. Data was reported as fold activation over DMSO control, and EC50.
ELISA assay condition 1: compound concentration range 20 nM-10 uM; ELISA assay condition 2: compound concentration 100 pM-10 uM.

[1] = ELISA condition 1: compound concentration range 20 nM-10 uM
[2] = ELISA condition 2: compound concentration 100 pM-10 uM

Structure (SMILES) | EC50 [1] [nM] | SMN activity Fold [1] [Fold] | EC50 [2] [nM] | SMN activity Fold [2] [Fold]
CN(c1ccc(-c2cc(C#N)ccc2O)nn1)C1CC(C)(C)NC(C)(C)C1 [Example 3-5, 4-hydroxy-3-(6-(methyl(2,2,6,6-tetramethylpiperidin-4-yl)amino)pyridazin-3-yl)benzonitrile] | 100 | 2.38 | – | –
CC1(C)CC(Nc2ccc(-c3ccc4nonc4c3)nn2)CC(C)(C)N1 [Example 2-1, 6-(benzo[c][1,2,5]oxa-diazol-5-yl)-N-(2,2,6,6-tetramethyl-piperidin-4-yl)pyridazin-3-amine] | 1370 | 2.68 | – | –
OCC1CN(c2ccc(-c3ccc(-n4cccn4)cc3O)nn2)CCN1 (centres unmarked) [Example 18-10, 2-[6-(3-hydroxy-methyl-piperazin-1-yl)-pyridazin-3-yl]-5-pyrazol-1-yl-phenol] | – | – | 386 | 2.55
CN(c1ccc(-c2cc(-n3cc(CO)cn3)ccc2O)nn1)C1CC(C)(C)NC(C)(C)C1 [Example 37-1, 4-(4-(hydroxymethyl)-1H-pyrazol-1-yl)-2-(6-(methyl(2,2,6,6-tetramethylpiperidin-4-yl)amino)pyridazin-3-yl)phenol] | – | – | 118 | 2.59
CN(c1ccc(-c2cc(-c3cc4ccccc4[nH]3)ccc2O)nn1)C1CC(C)(C)NC(C)(C)C1 [Example 32-4, 4-(1H-indol-2-yl)-2-(6-(methyl(2,2,6,6-tetramethylpiperidin-4-yl)amino)pyridazin-3-yl)phenol] | – | – | 168 | 2.09
CN(c1ccc(-c2cnc3ccccc3n2)nn1)C1CC(C)(C)NC(C)(C)C1 [Example 1-20, methyl-(6-quinoxalin-2-yl-pyridazin-3-yl)-(2,2,6,6-tetramethyl-piperidin-4-yl)-amine] | 470 | 3.04 | – | –
CN(c1ccc(-c2cc(-c3ccn[nH]3)ccc2O)nn1)C1CC(C)(C)NC(C)(C)C1 [Example 32-6, 2-(6-(methyl(2,2,6,6-tetramethylpiperidin-4-yl)amino)pyridazin-3-yl)-4-(1H-pyrazol-3-yl)phenol] | – | – | 92 | 2.69
COc1cc(-c2cn[nH]c2)cc(O)c1-c1ccc(N(C)C2CC(C)(C)NC(C)(C)C2)nn1 [Example 25-2, 3-methoxy-2-(6-(methyl(2,2,6,6-tetramethylpiperidin-4-yl)amino)pyridazin-3-yl)-5-(1H-pyrazol-4-yl)phenol] | – | – | 8 | 3.44
CN(c1ccc(-c2ccc3ncccc3c2)nn1)C1CC(C)(C)NC(C)(C)C1 [Example 1-13, N-methyl-6-(quinolin-6-yl)-N-(2,2,6,6-tetramethylpiperidin-4-yl)pyridazin-3-amine] | – | – | 661 | 2.22
Cn1ccc(-c2ccc(-c3ccc(OC4CC(C)(C)NC(C)(C)C4)nn3)c(O)c2)cc1=O [Example 41-11, 4-(3-hydroxy-4-(6-((2,2,6,6-tetramethylpiperidin-4-yl)oxy)pyridazin-3-yl)phenyl)-1-methylpyridin-2(1H)-one] | – | – | 12 | 2.78
CN(c1ccc(-c2ccc3cnncc3c2)nn1)C1CC(C)(C)NC(C)(C)C1 [Example 1-22, N-methyl-6-(phthalazin-6-yl)-N-(2,2,6,6-tetramethylpiperidin-4-yl)pyridazin-3-amine] | – | – | 867 | 2.71
CC1(C)CC(Oc2ccc(-c3cc4ccccc4cc3O)nn2)CC(C)(C)N1 [Example 3-6, 3-[6-(2,2,6,6-tetramethyl-piperidin-4-yloxy)-pyridazin-3-yl]-naphthalen-2-ol] | – | – | 110 | 3.01
CN(c1ccc(-c2cc3ccc(O)c(Br)c3cc2O)nn1)C1CC(C)(C)NC(C)(C)C1 [Example 24-4, 1-bromo-6-(6-(methyl(2,2,6,6-tetramethylpiperidin-4-yl)amino)pyridazin-3-yl)naphthalene-2,7-diol] | – | – | 16 | 3.06
CN(c1ccc(-c2ccc3cc(O)ccc3c2)nn1)C1CC(C)(C)NC(C)(C)C1 [Example 1-8, 6-(6-(methyl-(2,2,6,6-tetra-methylpiperidin-4-yl)amino)-pyridazin-3-yl)naphthalen-2-ol] | 320 | 2.18 | – | –
CN(c1ccc(-c2ccc(-c3ccn4ccnc4c3)cc2O)nn1)C1CC(C)(C)NC(C)(C)C1 [Example 41-19, 5-(imidazo[1,2-a]pyridin-7-yl)-2-(6-(methyl(2,2,6,6-tetramethylpiperidin-4-yl)amino)pyridazin-3-yl)phenol] | – | – | 17 | 2.62
CN(c1ccc(-c2cc(C(F)(F)F)ccc2O)nn1)C1CC(C)(C)NC(C)(C)C1 [Example 3-7, 2-{6-[methyl-(2,2,6,6-tetramethyl-piperidin-4-yl)-amino]-pyridazin-3-yl}-4-trifluoromethyl-phenol] | 4530 | 2.67 | – | –
Oc1cc(-n2cccn2)ccc1-c1ccc(OC2CCNCC2F)nn1 (centres unmarked) [Example 17-10, 2-(6-((3-fluoropiperidin-4-yl)oxy)pyridazin-3-yl)-5-(1H-pyrazol-1-yl)-phenol] | – | – | 945 | 2.03
CN(c1ccc(-c2cnc3ccccc3c2)nn1)C1CC(C)(C)NC(C)(C)C1 [Example 1-21, methyl-(6-quinolin-3-yl-pyridazin-3-yl)-(2,2,6,6-tetramethyl-piperidin-4-yl)-amine] | 630 | 2.49 | – | –
CC1(C)CC(Nc2ccc(-c3cc4ccccc4cc3O)nn2)CC(C)(C)N1 [Example 3-3, 3-(6-(2,2,6,6-tetramethylpiperidin-4-ylamino)pyridazin-3-yl)naphthalen-2-ol] | 64 | 2.48 | – | –
CC1CC(Oc2ccc(-c3ccc(-n4cccn4)cc3O)nn2)CCN1 (single isomer, unassigned) [Example 17-7] | – | – | 617 | 2.50
Oc1ccc2cc(-c3ccc(C4CCNCC4)nn3)c(O)cc2c1 [Example 19-7, 3-(6-(piperidin-4-yl)pyridazin-3-yl)naphthalene-2,7-diol] | – | – | 37 | 3.07
CN(c1ccc(-c2ccc(-n3cccc3)nc2)nn1)C1CC(C)(C)NC(C)(C)C1 [Example 1-18, methyl-[6-(6-pyrrol-1-yl-pyridin-3-yl)-pyridazin-3-yl]-(2,2,6,6-tetramethyl-piperidin-4-yl)-amine] | 1130 | 2.69 | – | –
CN(c1ccc(-c2cc3ccc(CN4CCCC4)cc3cc2O)nn1)C1CC(C)(C)NC(C)(C)C1 [Example 24-3, 3-(6-(methyl(2,2,6,6-tetramethylpiperidin-4-yl)amino)pyridazin-3-yl)-7-(pyrrolidin-1-ylmethyl)naphthalen-2-ol] | – | – | 120 | 2.75
Cc1nc2cc(-c3ccc(N(C)C4CC(C)(C)NC(C)(C)C4)nn3)c(O)cc2[nH]1 [Example 28-1, 2-methyl-5-(6-(methyl(2,2,6,6-tetramethylpiperidin-4-yl)amino)pyridazin-3-yl)-1H-benzo[d]imidazol-6-ol] | – | – | 475 | 3.41
CN(c1ccc(-c2ccc(-c3cnc(O)c(C(F)(F)F)c3)cc2O)nn1)C1CC(C)(C)NC(C)(C)C1 [Example 41-5, 5-(3-hydroxy-4-(6-(methyl(2,2,6,6-tetramethylpiperidin-4-yl)amino)pyridazin-3-yl)phenyl)-3-(trifluoromethyl)pyridin-2-ol] | – | – | 175 | 2.88
Oc1cc(-n2cccn2)ccc1-c1ccc(OCC2CCNC2)nn1 (single isomer, unassigned) [Example 17-9, 5-(1H-pyrazol-1-yl)-2-(6-(pyrrolidin-3-ylmethoxy)pyridazin-3-yl)phenol] | – | – | 1670 | 2.63
CN(c1ccc(-c2ccc(-c3cncc(O)c3)cc2O)nn1)C1CC(C)(C)NC(C)(C)C1 [Example 41-13, 5-(3-hydroxy-4-(6-(methyl(2,2,6,6-tetramethylpiperidin-4-yl)amino)pyridazin-3-yl)phenyl)pyridin-3-ol] | – | – | 308 | 3.50
CN(c1ccc(-c2cc3c(cc2O)CCn2cncc2-3)nn1)C1CC(C)(C)NC(C)(C)C1 [Example 35-6, 9-(6-(methyl(2,2,6,6-tetramethylpiperidin-4-yl)amino)pyridazin-3-yl)-5,6-dihydroimidazo[5,1-a]isoquinolin-8-ol] | – | – | 51 | 2.21
